Marks after values point to notes of the source that are not given here.
What was measured:
db/db mice [1] = assay: Oral glucose tolerance test (OGTT); format: in vivo; conditions: for OGTT glucose concentration versus G8 group (FIG. 6A): week 6 (medication stopped for 3 weeks), time points of 30 min and 60 min; for OGTT glucose concentration versus G8 group (FIG. 6B): week 9 (medication stopped for 6 weeks), time points of 30 min, 60 min and 120 min
Method: Blood was sampled from the tail vein, and FPG levels were measured and recorded as the basic blood glucose levels. […] The total area under the curve (AUC) in OGTT was plotted and calculated by the Area Under Coordinates Program (StatsToDo Server, Department of Obstetrics and Gynecology, Chinese University of Hong Kong).

db/db mice [2] = assay: Plasma biochemical parameters (AST, ALT, BUN, Cr, HbA1c); conditions: daily 3 weeks then stopped, DMH 0.41, MER 0.205, CEFT 0.82, PEN 1.473, TIE 0.41 mg/g bw i.p., MET 0.3 mg/g bw oral, week 9
Method: Inflammatory markers such as serum aspartate aminotransferase (AST), alanine aminotransferase (ALT), blood urea nitrogen (BUN), creatinine (Cr), and hemoglobin A1c (HbA1c) were measured using a BMC-Hitachi 717 chemistry auto analyzer.

db/db mice [3] = assay: Histopathological assessment (H&E stain); format: in vivo
Text: For histopathological assessment, all mice were sacrificed by 95% CO2 asphyxiation at the end of the study period. Their brain, liver, kidney, pancreas, and epididymal fat pads were removed, fixed in 10% phosphate-buffered formalin, and embedded in paraffin. Tissues embedded in paraffin were cut into 4-μm-thick sections that were then stained with hematoxylin-eosin (i.e., H&E stain).

db/db mice [4] = assay: Food and water intake of mice; format: in vivo; conditions: daily 3 weeks then stopped, DMH 0.41, MER 0.205, CEFT 0.82, PEN 1.473, TIE 0.41 mg/g bw i.p., MET 0.3 mg/g bw oral, average
Method: Four to five weeks old db/db mice (BKS.Cg-Dock7^m+/+Lepr^db/JNarl) and m/m mice (BKS.Cg-Dock7^m+/Dock7^m+) were obtained from National Laboratory Animal Center ([…], Taiwan). […] PMI Nutrition International, Brentwood, Mo.) and water ad libitum. […] The mouse body weight (bw) and the amounts of water and food intake were recorded weekly for the entire study period.

[5] = 0.41 mg/g bw/day i.p. for 3 weeks (Example 1)

| SMILES | OGTT glucose concentration versus G8 group (FIG. 6A) (db/db mice [1]) | OGTT glucose concentration versus G8 group (FIG. 6B) (db/db mice [1]) | BUN (db/db mice [2]) | Kidney histological changes (tubular degeneration and necrosis, mineralization deposition, hyaline cast) (db/db mice [3]; Example 2, end of study) | further results |
| --- | --- | --- | --- | --- | --- |
| C[C@@H](O)[C@H]1C(=O)N2C(C(=O)O)=C(S[C@@H]3CN[C@H](C(=O)Nc4cccc(C(=O)O)c4)C3)[C@H](C)[C@H]12 [DMH, ertapenem] | significantly lower than that in the G8 group | significantly lower than that in the G8 group | 44 ± 2^d mg/dL | more apparent in metformin-treated mice than in ertapenem-treated mice | OGTT glucose concentration versus DB group (FIG. 1) (db/db mice [1]; 0.41 mg/g bw/day i.p., week 3, time points of 90 min and 120 min): significantly lower than that in the DB group; Effect on oral glucose tolerance after treatment stopped (db/db mice [1]; treatment had been stopped for 10 weeks (Example 2)): effectively increased the oral glucose tolerance; Injuries in brain, liver, kidney, pancreas and epididymal fat pads (db/db mice [3]; [5]): no significant injuries; Severity and incidence of liver glycogen storage versus DB group (db/db mice [3]; [5]): slighter than that in the DB group; Injuries in liver, kidney, pancreas and epididymal fat pads (db/db mice [3]; Example 2, end of study): No significant injuries |
| CN(C)C(=N)N=C(N)N [Met, metformin] |  |  |  | more apparent in metformin-treated mice than in ertapenem-treated mice |  |
| CC1(C)S[C@@H]2[C@H](NC(=O)Cc3ccccc3)C(=O)N2[C@H]1C(=O)O [PEN, penicillin G] | significantly lower than that in the G8 group | significantly lower than that in the G8 group |  |  | Diet intake (db/db mice [4]): 4.0 ± 0.9^a g/mice/day |
| C[C@@H](O)[C@H]1C(=O)N2C(C(=O)O)=C(S[C@@H]3CN[C@H](C(=O)N(C)C)C3)[C@H](C)[C@H]12 [MER, meropenem hydrate] |  |  | 43 ± 2^bd mg/dL |  | ALT (db/db mice [2]): 89 ± 5^bcd U/L |
